{"source": "patent EP0479121A1", "about": "“Skin treatment compositions containing beta-phosphatidyl choline derivatives” (FIDIA S.p.A., priority 1990, dated 1992)", "key": {"[1]": {"assay": "Emulsion stability under centrifuging at 6000 r.p.m. (Test 2)", "type": "physicochemical", "conditions": "250 mg in 10 g water added to 90 g standard emulsion, phase separation noted", "experimental": "To evaluate the influence of β-phosphatidyl choline derivatives on emulsion stability, a standard emulsion was prepared having the following composition (Table 2):\nThe aqueous phase heated to 70°C is slowly added to the oil phase heated to 75°C. Rapid agitation is effected by a Silverson laboratory mixer equipped with an emulsifying head and is continued for about 30 minutes, slowly cooling the formed emulsion to ambient temperature.\n250 mg of each of the considered β-lecithins dispersed or dissolved in 10 g of water are added under slow agitation to 90 g of the standard emulsion obtained.\nThe resultant emulsions are tested for stability by subjecting them to centrifuging at 6000 r.p.m. for 10, 30 and 60 minutes respectively, and by storing them under temperature control at 45°C for 72 hours. In both cases the stability is evaluated by noting any phase separation."}, "stratum corneum": {"test_system": "stratum corneum", "assay": "In vivo hydration tests on human volunteers, Corneometer (Test 3)", "conditions": "50 mg cream on volar forearm (20 cm²), average of 10 subjects, lower numbers = higher hydration, before application 241±21; for Measured hydration values, 30': 30 min after application; for Measured hydration values, 150': 150 min after application; for Measured hydration values, 270': 270 min after application", "experimental": "The hydration tests were conducted using a Corneometer laboratory instrument equipped with a capacitive probe able to measure the moisture present on the stratum corneum. To conduct the test, 50 mg of standard cream and cream containing the various synthetic β-lecithins prepared as Examples 1 and 2 are applied to the volar surface of the forearm (20 cm² ) with light circular massage.\nThe hydration measurements were taken before applying the product and 30 min, 150 min and 270 min after its application. The hydration values are expressed in arbitrary units deriving from electrical impedance measurements on the cutaneous surface. Although the values are relative they are in inverse linear relationship to the absolute water quantity present in the cutaneous layer of the skin (lower numbers correspond to higher hydration)."}}, "data": [{"smiles": "CCCCCCCCCCCCCCCC(=O)OCC(COC(=O)CCCCCCCCCCCCCCC)OP(=O)([O-])OCC[N+](C)(C)C", "note": "[PCS1, 1,3-dipalmitoylglycero-2-phosphoryl choline]", "values": [{"measurement": "Stability under centrifuging at 6000 r.p.m., 10 min", "setting": "[1]; 10 min", "value": "Stable"}, {"measurement": "Stability under centrifuging at 6000 r.p.m., 30 min", "setting": "[1]; 30 min", "value": "Stable"}, {"measurement": "Stability under centrifuging at 6000 r.p.m., 60 min", "setting": "[1]; 60 min", "value": "Stable"}, {"measurement": "Measured hydration values, 30'", "setting": "stratum corneum", "value": "165±10", "unit": "arbitrary units"}, {"measurement": "Measured hydration values, 150'", "setting": "stratum corneum", "value": "195±15", "unit": "arbitrary units"}, {"measurement": "Measured hydration values, 270'", "setting": "stratum corneum", "value": "213±15", "unit": "arbitrary units"}]}, {"smiles": "CCCCCCCCCCCCCC(=O)OCC(COC(=O)CCCCCCCCCCCCC)OP(=O)([O-])OCC[N+](C)(C)C", "note": "[PCS2, 1,3-dimyristoylglycero-2-phosphoryl choline]", "values": [{"measurement": "Measured hydration values, 30'", "setting": "stratum corneum", "value": "147±11", "unit": "arbitrary units"}, {"measurement": "Measured hydration values, 150'", "setting": "stratum corneum", "value": "175±10", "unit": "arbitrary units"}, {"measurement": "Measured hydration values, 270'", "setting": "stratum corneum", "value": "195±9", "unit": "arbitrary units"}]}, {"smiles": "CC(C)(C)C(=O)OCC(COC(=O)C(C)(C)C)OP(=O)([O-])OCC[N+](C)(C)C", "note": "[PCS3, 1,3-dipivaloylglycero-2-phosphoryl choline]", "values": [{"measurement": "Measured hydration values, 30'", "setting": "stratum corneum", "value": "157±7", "unit": "arbitrary units"}, {"measurement": "Measured hydration values, 150'", "setting": "stratum corneum", "value": "193±13", "unit": "arbitrary units"}, {"measurement": "Measured hydration values, 270'", "setting": "stratum corneum", "value": "206±9", "unit": "arbitrary units"}]}, {"smiles": "CCCCCCCCCCCCCCCCCC(=O)OCC(COC(=O)CCCCCCCCCCCCCCCCC)OP(=O)([O-])OCC[N+](C)(C)C", "note": "[PCS4, 1,3-distearoylglycero-2-phosphoryl choline]", "values": [{"measurement": "Measured hydration values, 30'", "setting": "stratum corneum", "value": "132±12", "unit": "arbitrary units"}, {"measurement": "Measured hydration values, 150'", "setting": "stratum corneum", "value": "161±11", "unit": "arbitrary units"}, {"measurement": "Measured hydration values, 270'", "setting": "stratum corneum", "value": "180±12", "unit": "arbitrary units"}]}, {"smiles": "COc1cc(C(=O)OCC(COC(=O)c2cc(OC)c(OC)c(OC)c2)OP(=O)([O-])OCC[N+](C)(C)C)cc(OC)c1OC", "note": "[PCS5, 1,3-di(3,4,5-trimethoxybenzoyl)glycero-2-phosphoryl choline]", "values": [{"measurement": "Measured hydration values, 30'", "setting": "stratum corneum", "value": "124±14", "unit": "arbitrary units"}, {"measurement": "Measured hydration values, 150'", "setting": "stratum corneum", "value": "144±16", "unit": "arbitrary units"}, {"measurement": "Measured hydration values, 270'", "setting": "stratum corneum", "value": "177±15", "unit": "arbitrary units"}]}]}
